Laboratory results published in patent publication US20050113286A1, “Methods for treating congestive heart failure” (priority 2002, published 2005).

Legend:
[1] = tested on: symptoms of acute decompensated HF; details: VMAC trial; cited from earlier work
aldosterone = test: FUSION I: serum aldosterone; format: in vivo, human
From the text: (§1) Surrogate measures with mechanistic implications included measures of serum aldosterone, serum endothelin-1, and serial measurements of ventricular function using ejection fractions derived from echocardiography. Pre-infusion aldosterone and endothelin-1 concentrations were collected and analyzed at a core lab (The Mayo Clinic, Rochester, Minn.) at weeks 1, 4, 8, and 12; post-infusion concentrations were collected at weeks 1 and 12. Left ventricular ejection fractions were serially measured and read at a core lab (Midwest Heart Foundation Echocardiographic Core Laboratory, Lombard, Ill.).

[2] = tested on: patients with chronic decompensated HF; test: FUSION I: left ventricular ejection fraction by echocardiography; format: in vivo, human
From the text: as §1

[3] = tested on: patients with chronic decompensated HF; test: FUSION I: clinical outcomes (death, hospitalization, days alive and out of hospital) through 12 weeks; format: in vivo, human
Experimental: In this multicenter, open-label, pilot study, patients were randomly assigned to 1 of 3 treatment groups in a 1:1:1 ratio: (1) usual care, as determined by the investigating physician; (2) usual care plus nesiritide 0.005 μg/kg/min given for 4 to 6 hours, preceded by a 1.0-μg/kg bolus; or (3) usual care plus nesiritide 0.01 μg/kg/min given for 4 to 6 hours, preceded by a 2.0-μg/kg bolus (FIG. 1). The study treatment period was 12 weeks with an additional 4 weeks of follow-up. Nesiritide (Natrecor®) was supplied by Scios Inc., Fremont, Calif. Informed consent was obtained from each patient prior to enrollment, and the Ethics Committee of each institution prospectively approved the study.
The primary goal of this open-label study was to assess the safety and tolerability of different nesiritide doses administered as serial outpatient infusions. Safety and tolerability were measured through investigator reporting of adverse events (AEs), serious AEs, discontinuations of study infusions, laboratory assessments, and vital signs. An AE was defined as any new onset or worsening of any medical condition since study entry. A serious AE were those AEs, which lead to death, hospitalization, or prolonged hospitalization. The effect of nesiritide infusions on renal function was also monitored as a safety variable, with renal AEs defined as increased blood urea nitrogen (BUN) or serum creatinine levels (determined by investigator's discretion), onset of oliguria, or occurrence of acute renal failure. Clinical events were followed to further evaluate safety and tolerability.
To characterize treatment groups with respect to known prognostic factors for hospitalization or death, patients were prospectively stratified using a Risk Assessment Score (RAS). Two levels of risk were defined: patients with an RAS≧4 (i.e., with 4 or more of the 7 risk factors) and patients with an RAS<4. Risk factors utilized were: (1) serum creatinine of >2.0 mg/dl in the preceding 30 days; (2) NYHA class IV for the preceding 60 days; (3)≧65 years old; (4) history of sustained ventricular tachycardia; (5) ischemic etiology of HF; (6) diabetes; and (7) outpatient use of nesiritide or inotropic agents in preceding 6 months.
The effect of treatment was assessed with a 2-way ANOVA, an F test, a stratified Wilcoxon test, a Wilcoxon test, or the generalized Fisher's exact test, depending on the distribution of the variable. Kaplan-Meier estimates of the survival curves for morbidity/mortality time-to-event data were calculated. A log-rank or stratified log-rank test was used for comparisons between 2 treatment groups.

[4] = RAS ≧4 patients, 0.005 μg/kg/min, n = 24, through 12 weeks
[5] = RAS ≧4 patients, 0.01 μg/kg/min, n = 20, through 12 weeks
[6] = RAS ≧4 patients, both nesiritide groups, n = 44, through 12 weeks
[7] = all patients, 0.005 μg/kg/min, n = 72, through 12 weeks
[8] = all patients, 0.01 μg/kg/min, n = 69, through 12 weeks
[9] = all patients, both nesiritide groups, n = 141, through 12 weeks
[10] = baseline NYHA class IV, 0.005 μg/kg/min, n = 25
[11] = baseline NYHA class IV, 0.01 μg/kg/min, n = 22
[12] = baseline NYHA class IV, both nesiritide groups, n = 47
[13] = baseline NYHA class IV, both nesiritide groups, n = 47, p = 0.148 compared with usual care
[14] = lowest serum creatinine >2.0 mg/dL during 30 days prior to the study, 0.005 μg/kg/min, n = 13
[15] = lowest serum creatinine >2.0 mg/dL during 30 days prior to the study, 0.01 μg/kg/min, n = 14
[16] = lowest serum creatinine >2.0 mg/dL during 30 days prior to the study, both nesiritide groups, n = 27
[17] = lowest serum creatinine >2.0 mg/dL during 30 days prior to the study, both nesiritide groups, n = 27, p = 0.176 compared with usual care

Nesiritide: a recombinant form of human B-type natriuretic peptide (BNP)
Resolution of the symptoms of acute decompensated HF versus IV diuretics or nitroglycerin [1]: more rapid resolution
Post-infusion levels of aldosterone versus baseline (aldosterone; after the week 12 infusion, 0.01-μg/kg/min and all-nesiritide group, p<0.02 (FIG. 2A)): significant changes from baseline
Mean pre-infusion aldosterone values over time (aldosterone; any treatment group): no significant changes
Mean change from baseline (±standard deviation) in post-infusion aldosterone (aldosterone; week 1, 0.005-μg/kg/min): -5.0 ± 14.8 pg/mL
Mean change from baseline (±standard deviation) in post-infusion aldosterone (aldosterone; week 1, 0.01-μg/kg/min, p=0.02 compared to baseline): -10.9 ± 22.8 pg/mL
Mean post-infusion values of aldosterone versus baseline (aldosterone; weeks 1 and 12, both nesiritide groups): significant declines
Mean change in ejection fraction from baseline to week 12 ([2]; 0.005-μg/kg/min): +4.0±3.3%
Mean change in ejection fraction from baseline to week 12 ([2]; 0.01-μg/kg/min, p=0.03 compared with the usual-care group): +5.3±5.0%
Hospitalizations compared with usual care ([3]; NYHA class IV status): trend towards a reduction
All-cause death and hospitalization, % of patients [3, 4]: 42%
All-cause death and hospitalization, number of patients [3, 4]: 10
All-cause hospitalization, % of patients [3, 4]: 42%
All-cause hospitalization, number of patients [3, 4]: 10
Days alive and out of hospital, 25th percentile [3, 4]: 74.6 days
Days alive and out of hospital, Mean ± SD [3, 4]: 76.3 ± 16.8 days
Deaths, % of patients [3, 4]: 4%
Deaths, number of patients [3, 4]: 1
All-cause death and hospitalization, % of patients [3, 5]: 65%
All-cause death and hospitalization, number of patients [3, 5]: 13
All-cause hospitalization, % of patients [3, 5]: 60%
All-cause hospitalization, number of patients [3, 5]: 12
Days alive and out of hospital, 25th percentile [3, 5]: 75.3 days
Days alive and out of hospital, Mean ± SD [3, 5]: 77.2 ± 14.0 days
Deaths, % of patients [3, 5]: 5%
Deaths, number of patients [3, 5]: 1
All-cause death and hospitalization, % of patients [3, 6]: 52%
All-cause death and hospitalization, number of patients [3, 6]: 23
All-cause hospitalization, % of patients [3, 6]: 50%
All-cause hospitalization, number of patients [3, 6]: 22
Days alive and out of hospital, 25th percentile [3, 6]: 75.0 days
Days alive and out of hospital, Mean ± SD [3, 6]: 76.7 ± 15.5 days
Deaths, % of patients [3, 6]: 5%
Deaths, number of patients [3, 6]: 2
Days alive and out of the hospital compared to the usual care group ([3]; RAS≧4 cohort, p=0.027): statistically significant increase
Deaths or hospitalizations compared with usual care only ([3]; RAS≧4 patients): statistically significantly fewer
All-cause death and hospitalization, % of patients [3, 7]: 46%
All-cause death and hospitalization, number of patients [3, 7]: 33
All-cause hospitalization, % of patients [3, 7]: 44%
All-cause hospitalization, number of patients [3, 7]: 32
Days alive and out of hospital, 25th percentile [3, 7]: 74.2 days
Days alive and out of hospital, Mean ± SD [3, 7]: 76.1 ± 15.3 days
Deaths, % of patients [3, 7]: 8%
Deaths, number of patients [3, 7]: 6
All-cause death and hospitalization, % of patients [3, 8]: 49%
All-cause death and hospitalization, number of patients [3, 8]: 34
All-cause hospitalization, % of patients [3, 8]: 48%
All-cause hospitalization, number of patients [3, 8]: 33
Days alive and out of hospital, 25th percentile [3, 8]: 79.0 days
Days alive and out of hospital, Mean ± SD [3, 8]: 78.9 ± 10.9 days
Deaths, % of patients [3, 8]: 4%
Deaths, number of patients [3, 8]: 3
All-cause death and hospitalization, % of patients [3, 9]: 48%
All-cause death and hospitalization, number of patients [3, 9]: 67
All-cause hospitalization, % of patients [3, 9]: 46%
All-cause hospitalization, number of patients [3, 9]: 65
Days alive and out of hospital, 25th percentile [3, 9]: 77.6 days
Days alive and out of hospital, Mean ± SD [3, 9]: 77.5 ± 13.3 days
Deaths, % of patients [3, 9]: 6%
Deaths, number of patients [3, 9]: 9
Deaths or hospitalizations compared with usual-care group ([3]; all patients, each nesiritide dose group and all nesiritide group): no statistically significant differences
Days alive and out of the hospital compared with usual-care patients ([3]; all patients, p=0.131): trends for increasing days alive and out of the hospital
Days alive and out of hospital, Mean ± SD [3, 10]: 73.3 ± 18.4 days
Days alive and out of hospital, Median [3, 10]: 84 days
Patient deaths, % [3, 10]: 8%
Patient deaths, number [3, 10]: 2
Patients hospitalized, % [3, 10]: 48%
Patients hospitalized, number [3, 10]: 12
Days alive and out of hospital, Mean ± SD [3, 11]: 77.7 ± 13.5 days
Days alive and out of hospital, Median [3, 11]: 82 days
Patient deaths, % [3, 11]: 5%
Patient deaths, number [3, 11]: 1
Patients hospitalized, % [3, 11]: 55%
Patients hospitalized, number [3, 11]: 12
Days alive and out of hospital, Median [3, 12]: 83 days
Patient deaths, % [3, 12]: 6%
Patient deaths, number [3, 12]: 3
Patients hospitalized, % [3, 13]: 51%
Patients hospitalized, number [3, 13]: 24
Days alive and out of hospital, Mean ± SD ([3]; baseline NYHA class IV, both nesiritide groups, n = 47, p = 0.182 compared with usual care): 75.4 ± 16.2 days
Days alive and out of hospital compared to usual care alone ([3]; elevated serum creatinine, >2.0 mg/dL): statistically significant increase
Days alive and out of hospital, Mean ± SD [3, 14]: 75.7 ± 19.0 days
Days alive and out of hospital, Median [3, 14]: 84 days
Patient deaths, % [3, 14]: 8%
Patient deaths, number [3, 14]: 1
Patients hospitalized, % [3, 14]: 46%
Patients hospitalized, number [3, 14]: 6
Days alive and out of hospital, Mean ± SD [3, 15]: 78.4 ± 9.0 days
Days alive and out of hospital, Median [3, 15]: 81 days
Patient deaths, % [3, 15]: 7%
Patient deaths, number [3, 15]: 1
Patients hospitalized, % [3, 15]: 57%
Patients hospitalized, number [3, 15]: 8
Days alive and out of hospital, Median [3, 16]: 81 days
Patient deaths, % [3, 16]: 7%
Patient deaths, number [3, 16]: 2
Days alive and out of hospital, Mean ± SD ([3]; lowest serum creatinine >2.0 mg/dL during 30 days prior to the study, both nesiritide groups, n = 27, p = 0.019 compared with usual care): 77.1 ± 14.7 days
Patients hospitalized, % [3, 17]: 52%
Patients hospitalized, number [3, 17]: 14
